In publication PMC11714206, “Massively Parallel Screening of Toll/Interleukin‐1 Receptor (TIR)‐Derived Peptides Reveals Multiple Toll‐Like Receptors (TLRs)‐Targeting Immunomodulatory Peptides” (Advanced Science, 2024):

Target: T1, MyD88^TIR (Homo sapiens, UniProt Q99836)
T1 construct: MyD88 (residues 148–296); 6xHis; made in house; host or cells: E. coli BL21 (DE3)
Experiment: T‐Surf phage library (P8 and P3) selection against MyD88^TIR, four rounds, NGS read counts
Type: binding
Conditions: for P3_MyD88 Rank (after) / P3_MyD88 Rank (before): P3 library; for P8_MyD88 Rank (after) / P8_MyD88 Rank (before): P8 library; for Population: 4th round of selection against MyD88 TIR, share of NGS reads
Outline: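 Four panning rounds on TIR domain adsorbed at 5 µg mL^−1; binding 1 h at 20–22 °C, elution with 100 mM HCl. Output: NGS read counts of round‐4 pools versus naïve library.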

[1] = 4R selection against MyD88, rank after grouping
[2] = 4R selection against MyD88, rank before grouping
[3] = selection against MyD88, rank after grouping
[4] = selection against MyD88, rank before grouping
[5] = P8_MyD88: rank by count after grouping
[6] = P8_MyD88: rank by count before grouping
[7] = P3_MyD88: rank by count after grouping
[8] = P3_MyD88: rank by count before grouping
[9] = selection against MyD88 TIR, rank by count after grouping
[10] = selection against MyD88 TIR, rank by count before grouping
[11] = P8_MyD88 pool: P8 T-Surf phage library
[12] = P8_MyD88: rank by NGS read count after grouping
[13] = P8_MyD88: rank by NGS read count before grouping
[14] = selection against MyD88, rank by count after grouping
[15] = selection against MyD88, rank by count before grouping
[16] = P3_MyD88 pool: P3 T-Surf phage library

T1 sequence (Q99836 148-296): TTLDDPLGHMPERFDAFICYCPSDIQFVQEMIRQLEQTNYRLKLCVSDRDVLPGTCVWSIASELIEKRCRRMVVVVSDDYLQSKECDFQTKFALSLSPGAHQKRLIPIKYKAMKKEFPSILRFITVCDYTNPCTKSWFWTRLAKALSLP

SSFREGLWRLMALIKK
P3_MyD88 Rank (after) [1]: 600
P3_MyD88 Rank (before) [2]: 3188

LKVESWRDALTAAANLSGW
P3_MyD88 Rank (after) [3]: 489
P3_MyD88 Rank (before) [4]: 2475

WAQDALLKILYAKETM
P8_MyD88 Rank (after) [1]: 614
P8_MyD88 Rank (before) [2]: 1562

PQEQVWFYERQVSLIV
P8_MyD88 Rank (after) [3]: 533
P8_MyD88 Rank (before) [4]: 3500

IQCRNATSPAALLIGR
P8_MyD88 Rank (after) [1]: 651
P8_MyD88 Rank (before) [2]: 3652

YAASPWWFDELVRIVC
Rank (after) [5]: 407
Rank (before) [6]: 1723

DPQDPDWCYERLVSLI
P8_MyD88 Rank (after) [3]: 522
P8_MyD88 Rank (before) [4]: 2962

HWIEWEYFVGIEEHIK
Rank (after) [5]: 397
Rank (before) [6]: 3541

SSFREGLWHLLVLSKK
Rank (after) [7]: 160
Rank (before) [8]: 3197

AWIWGWREALVYIGGI
P8_MyD88 Rank (after) [9]: 254
P8_MyD88 Rank (before) [10]: 448

EIARQLLSEYLNIAVY
Rank (after) [5]: 131
Rank (before) [6]: 142
Population [11]: 0.0116%

DFLSHLIKRLAVCTS
Rank (after) [12]: 896
Rank (before) [13]: 2347

GLSWGPYEWCRGLYDA
P8_MyD88 Rank (after) [14]: 770
P8_MyD88 Rank (before) [15]: 2294

LSRVTSVHDARGLGGI
P3_MyD88 Rank (after) [3]: 564
P3_MyD88 Rank (before) [4]: 2395

YTALTNSGFHTFLDNY
Rank (after) [7]: 119
Rank (before) [8]: 1665

YTALTYSGFHTFRGND
P3_MyD88 Rank (after) [1]: 645
P3_MyD88 Rank (before) [2]: 1641

SSFRQGLWRLRELSKK
Rank (after) [7]: 405
Rank (before) [8]: 3229

SSFREGLWRLVYLSKK
P3_MyD88 Rank (after) [3]: 538
P3_MyD88 Rank (before) [4]: 3160

YLKWGYPWFWSKLRYAM
Rank (after) [7]: 110
Rank (before) [8]: 575

SSFREQLRPALKERLP
P3_MyD88 Rank (after) [9]: 215
P3_MyD88 Rank (before) [10]: 1210

NQWRHALTAEANLSGW
Rank (after) [7]: 408
Rank (before) [8]: 3472

DPKALQWFYERLVSLI
P8_MyD88 Rank (after) [3]: 562
P8_MyD88 Rank (before) [4]: 3042

SENYATSTWAPDELVR
P3_MyD88 Rank (after) [3]: 496
P3_MyD88 Rank (before) [4]: 2998

DFLNWFIAPNSTVIEN
Rank (after) [5]: 457
Rank (before) [6]: 2364

WALQELLEILKANREL
Rank (after) [5]: 149
Rank (before) [6]: 168
Population [11]: 0.00848%

EWIREQLRPALKEHLP
Population [16]: 0.00437%

GFLYHAFAREGIKIFM
Rank (after) [7]: 124
Rank (before) [8]: 1793

SENMRPARGRWMNWC
P3_MyD88 Rank (after) [1]: 654
P3_MyD88 Rank (before) [2]: 3000

PQDLDWFYDRLVSLIL
P8_MyD88 Rank (after) [1]: 589
P8_MyD88 Rank (before) [2]: 3431

LVAHQISKTIKIFATI
Rank (after) [7]: 389
Rank (before) [8]: 2314

LKVESWRQALDELVL
P3_MyD88 Rank (after) [9]: 261
P3_MyD88 Rank (before) [10]: 1077

QLIGCGNTFFRWKKKIR
Rank (after) [12]: 1002
Rank (before) [13]: 3572

DPQDLAWFYERLVSLF
Population [11]: 0.00617%

WALDELLQILQARELS
P8_MyD88 Rank (after) [14]: 721
P8_MyD88 Rank (before) [15]: 1462

FIRYLVWGLRDERLNL
P8_MyD88 Rank (after) [9]: 208
P8_MyD88 Rank (before) [10]: 297

NHHLDPPRGKANKPGILG
P3_MyD88 Rank (after) [14]: 702
P3_MyD88 Rank (before) [15]: 3461

SENYATRPWAPDELVL
P3_MyD88 Rank (after) [1]: 673
P3_MyD88 Rank (before) [2]: 2999

DYASSWWALDELLRILY
P8_MyD88 Rank (after) [1]: 650
P8_MyD88 Rank (before) [2]: 2504

DYASYDDNDYYWVTHVLLRHL
Rank (after) [5]: 439
Rank (before) [6]: 1058

LGYHWIDWEYFVGSED
Population [11]: 0.00655%

DPHDLDWFYERLVSLL
Rank (after) [5]: 143
Rank (before) [6]: 1072

YASSTWALDELLQIFE
Rank (after) [5]: 124
Rank (before) [6]: 131
Population [11]: 0.0135%

DPQVLEWFYERLVSMF
P8_MyD88 Rank (after) [1]: 658
P8_MyD88 Rank (before) [2]: 2657

DHHLDLPRGKALKPEMLG
P3_MyD88 Rank (after) [9]: 200
P3_MyD88 Rank (before) [10]: 2046

WRDALNNISSIFGWVA
P8_MyD88 Rank (after) [14]: 764
P8_MyD88 Rank (before) [15]: 1648

DTILEKVQSIAPELLR
Rank (after) [7]: 401
Rank (before) [8]: 2092

SENYATSPWALTELVH
P3_MyD88 Rank (after) [9]: 278
P3_MyD88 Rank (before) [10]: 2986

LGYHWMGWEYFVGIED
P8_MyD88 Rank (after) [3]: 560
P8_MyD88 Rank (before) [4]: 3298

DVLYYALIDAGIRVFR
Rank (after) [5]: 182
Rank (before) [6]: 216

ELDFASNMEQFWDRLYY
Rank (after) [12]: 935
Rank (before) [13]: 3177

EWSREQLRPALKESLP
P3_MyD88 Rank (after) [9]: 239
P3_MyD88 Rank (before) [10]: 2184

SSFREGRWRLLELSKK
Population [16]: 0.0032%

DEAWFLTKLRISLEHL
P8_MyD88 Rank (after) [3]: 576
P8_MyD88 Rank (before) [4]: 2581

KEVEGWRDALTKAANL
Rank (after) [7]: 138
Rank (before) [8]: 3640

DPLHLDWHYERLVSTD
P8_MyD88 Rank (after) [14]: 680
P8_MyD88 Rank (before) [15]: 2615

EDSIFYAVSSGALDEP
P8_MyD88 Rank (after) [14]: 697
P8_MyD88 Rank (before) [15]: 3174

SSFREGLWRLPELLR
Rank (after) [7]: 101
Rank (before) [8]: 402

YLRLEVIWFWENRRYA
P8_MyD88 Rank (after) [3]: 491
P8_MyD88 Rank (before) [4]: 2075

YTALNNMGFHTFRGND
P3_MyD88 Rank (after) [14]: 705
P3_MyD88 Rank (before) [15]: 1627

NERVHVWSSKAKSLVG
Rank (after) [7]: 443
Rank (before) [8]: 3453

WALQELVKILQAKIFL
Rank (after) [5]: 109
Rank (before) [6]: 115
Population [11]: 0.02%

DPQDLEWFYERLVSLI
Population [11]: 0.01%

LGYHWIDWEDFVGIEN
Rank (after) [12]: 919
Rank (before) [13]: 3280

EPQDLDWLYERLVSLF
Rank (after) [12]: 1009
Rank (before) [13]: 3148

AVDKETDKIQTPLEM
Rank (after) [7]: 115
Rank (before) [8]: 601

ELWVLRYLLPTLEEQQ
Rank (after) [5]: 157
Rank (before) [6]: 173
Population [11]: 0.00809%

WALDELLKILYVIATL
P8_MyD88 Rank (after) [3]: 525
P8_MyD88 Rank (before) [4]: 1480

DPLGQVRLSFRLFRQI
P8_MyD88 Rank (after) [14]: 748
P8_MyD88 Rank (before) [15]: 2610

LGYHRIDWEYCVGIED
Rank (after) [12]: 1020
Rank (before) [13]: 3318

EPPGLDWVYERLVVLF
Rank (after) [12]: 927
Rank (before) [13]: 3199

SSFRGGLWRLLELSKK
Population [16]: 0.00349%

SENYATSPWALDELVP
Population [16]: 0.00437%

YLEWPLDENQQLIFWF
Rank (after) [5]: 477
Rank (before) [6]: 1960

DLLLSEFQSIFARRTV
P8_MyD88 Rank (after) [3]: 531
P8_MyD88 Rank (before) [4]: 2593

SENYATSPWALEKAGKL
Rank (after) [7]: 423
Rank (before) [8]: 2984

WALVKLLKILYANDTM
Rank (after) [12]: 949
Rank (before) [13]: 1406

DSWTSAALYEALHALL
Rank (after) [5]: 156
Rank (before) [6]: 172
Population [11]: 0.00809%

DPQDLDWFYERLLSR
P8_MyD88 Rank (after) [9]: 236
P8_MyD88 Rank (before) [10]: 467

YELDFSHFWLFDGQAGGEA
P8_MyD88 Rank (after) [9]: 284
P8_MyD88 Rank (before) [10]: 664

QLIQQWIELHLHQLH
P8_MyD88 Rank (after) [1]: 588
P8_MyD88 Rank (before) [2]: 3585

LAANEIRKEMKTLATI
P3_MyD88 Rank (after) [14]: 680
P3_MyD88 Rank (before) [15]: 2326

SSFREGLWRLLELGKK
Population [16]: 0.00437%

YLRADDSWFEEKLLFA
P8_MyD88 Rank (after) [3]: 574
P8_MyD88 Rank (before) [4]: 2062

DLVCDYLLPNLEGAAG
P8_MyD88 Rank (after) [3]: 537
P8_MyD88 Rank (before) [4]: 2385

LGYQWNDWEYFVGIED
Rank (after) [12]: 957
Rank (before) [13]: 3326

APQDLEWFYERLVSLIL
Rank (after) [5]: 431
Rank (before) [6]: 2322

PYLLWVFDDEDGQELF
P8_MyD88 Rank (after) [9]: 199
P8_MyD88 Rank (before) [10]: 291

DPQDLDWIYERLVSRF
Rank (after) [5]: 436
Rank (before) [6]: 2831

DPQYRDWFYERLVSLP
P8_MyD88 Rank (after) [3]: 512
P8_MyD88 Rank (before) [4]: 2642

SSFREGLWHLLQLSLK
P3_MyD88 Rank (after) [1]: 584
P3_MyD88 Rank (before) [2]: 3198

WFLTAFRMAMDQVADT
Rank (after) [5]: 95
Rank (before) [6]: 100
Population [11]: 0.025%

DQHRDLPRGKAIKPEILG
Rank (after) [7]: 168
Rank (before) [8]: 2067

NELCMCGAAKRIAWW
Rank (after) [7]: 175
Rank (before) [8]: 1238

SSGRECLWRLLELRKK
Rank (after) [7]: 415
Rank (before) [8]: 3270

LVSHEISKKVKIFATI
P3_MyD88 Rank (after) [1]: 638
P3_MyD88 Rank (before) [2]: 2265

SELRVVDKETDKIQTPLKNA
Rank (after) [7]: 412
Rank (before) [8]: 3051

DPQDLAWFYASQSSQM
P8_MyD88 Rank (after) [3]: 500
P8_MyD88 Rank (before) [4]: 2997

DHHLNLPRGKSVKPEILG
P3_MyD88 Rank (after) [1]: 652
P3_MyD88 Rank (before) [2]: 2057

SSFRECLWRLEELSKK
Rank (after) [7]: 457
Rank (before) [8]: 3136

AVDKETDKIQTAEKC
P3_MyD88 Rank (after) [9]: 242
P3_MyD88 Rank (before) [10]: 924
